In US20230219965A1 (KSQ Therapeutics, Inc., priority 2020, published 2023):
Read-outs that look alike come from different tables or passages of the source.

Columns and labels:
[1] = ADME solubility determination in PBS at pH 2.0 and pH 7.4; format: physicochemical; conditions: phosphate buffered saline, 25 °C, thermodynamic from solid
Summary of the method: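 Solubility was read by LC-MS/MS on centrifuged supernatants, calibrated to a known-concentration standard and corrected for dilution. Compound, dried down from 10 mM DMSO stock, was equilibrated 24 h at 25° C with shaking in PBS at pH 2.0 or pH 7.4.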

[2] = Liver microsomal metabolic stability, human liver microsomes (HLM); conditions: human, liver microsomes
[3] = tested on: Ub-PCNA levels in the nucleus of ES2 cells (USP1 activity); assay: ES2 Ub-PCNA immunofluorescence (IF) assay; format: cell-based; conditions: Homo sapiens, ES-2; ES2 cells, 3 hours, Ub-PCNA immunofluorescence; read-out: USP1 IC50 (Ub-PCNA)
Protocol: USP1 is a deubiquitinating enzyme that removes ubiquitin from mono-ubiquitinated Proliferating Cell Nuclear Antigen (Ub-PCNA). The levels of Ub-PCNA in the nucleus of cells can be used to assess the activity of USP1. An immunofluorescence assay can be established to monitor Ub-PCNA levels in the ovarian cancer cell line, ES2.
An assay can be performed by first plating 5000 ES2 cells per well in black 96 well plates (Corning #3904) and then incubating overnight at 37° C. and 5% CO2. Compounds, resuspended in DMSO, can be added to the cells, to a final DMSO concentration of 0.3%. Plates can be incubated at 37° C. and 5% CO2 for 3 hours.
Cells can be then fixed and stained by first removing the media from each plate and fixing the cells with −20° C. methanol for 5 minutes at room temperature. Fixation plates can be washed with Tris buffered saline with tween (Boston Bioproducts #IBB-855) 5 times for 5 minutes each. Plates can be blocked for 1 hour with 50 μl of Odyssey blocking buffer (Licor #327-50000) at room temperature with rocking. Block can be removed from all wells and 50 μl of primary antibody was added to each well. Ub-PCNA ab (Cell Signaling Technology #13439) can be diluted at 1:400 in Odyssey blocking buffer. Plates can be sealed and incubated overnight at 4° C. Primary antibodies can be removed from the plates and plates can be washed with Tris buffered saline with tween 5 times for 5 minutes. Plates can be stained for 1 hour at room temperature with rocking with 50 μl of secondary antibodies diluted 1:10,000 in Odyssey blocking buffer at room temperature (anti-rabbit Alexa 488). Antibodies can be removed from the plates and plates can be washed with Tris buffered saline with tween 3 times for 5 minutes. Plates can be washed once with DAPI (Chemometec #910-3012) stain diluted 1:5000 (Stock solution of 500 μg/ml) in tris buffered saline with tween for 5 minutes. DAPI stain can be removed and plates can be washed one additional time for 5 minutes with tris buffered saline with tween. Wash can be removed from the plate and 100 μl tris buffered saline with tween can be added back to all wells, Plates can be sealed with Foil seals or black plate seals and plates can be stored at 4° C. until they can be imaged.
Imaging of the plates can be performed by first locating the nuclei using the DAPI stain. A mask can be created by drawing a circle slightly smaller than each nucleus. Ub-PCNA intensities can be measured for each individual nucleus counted. A histogram of all Ub-PCNA nuclear intensities measured in untreated wells can be generated and a 95% cutoff can be established. This 95% cutoff can be used to determine the number of Positive cells that have Ub-PCNA values higher than the 95% cutoff. The number of positive cells can be expressed as a percentage by dividing by the total number of cells in the well. This percent positive value can be used to graph all data and to determine AC50 values.
USP1 is a deubiquitinating enzyme that removes ubiquitin from mono-ubiquitinated
Proliferating Cell Nuclear Antigen (Ub-PCNA). The levels of Ub-PCNA in the nucleus of cells was used to assess the activity of USP1. An immunofluorescence assay was established to monitor Ub-PCNA levels in the ovarian cancer cell line, ES2.
This assay was performed by first plating 5000 ES2 cells per well in black 96 well plates (Corning #3904) and then incubated overnight at 37° C. and 5% CO2. Compounds, resuspended in DMSO, were added to the cells, to a final DMSO concentration of 0.3%. Plates were incubated at 37° C. and 5% CO2 for 3 hours.
Cells were then fixed and stained by first removing the media from each plate and fixing the cells with −20° C. methanol for 5 minutes at room temperature. Following fixation plates were washed with Tris buffered saline with tween (Boston Bioproducts ABB-855) 5 times for 5 minutes each. Plates were blocked for 1 hour with 50μ.1 of Odyssey blocking buffer (Licor #327-50000) at room temperature with rocking. […]

[4] = target: USP1/UAF1 enzyme (Homo sapiens, UniProt O94782); assay: USP1/UAF1 deubiquitination assay (ubiquitin-rhodamine 110 substrate); format: biochemical; conditions: read-out: USP1 IC50 (Ub-Rho)
USP1/UAF1 enzyme, sequence (O94782 whole entry): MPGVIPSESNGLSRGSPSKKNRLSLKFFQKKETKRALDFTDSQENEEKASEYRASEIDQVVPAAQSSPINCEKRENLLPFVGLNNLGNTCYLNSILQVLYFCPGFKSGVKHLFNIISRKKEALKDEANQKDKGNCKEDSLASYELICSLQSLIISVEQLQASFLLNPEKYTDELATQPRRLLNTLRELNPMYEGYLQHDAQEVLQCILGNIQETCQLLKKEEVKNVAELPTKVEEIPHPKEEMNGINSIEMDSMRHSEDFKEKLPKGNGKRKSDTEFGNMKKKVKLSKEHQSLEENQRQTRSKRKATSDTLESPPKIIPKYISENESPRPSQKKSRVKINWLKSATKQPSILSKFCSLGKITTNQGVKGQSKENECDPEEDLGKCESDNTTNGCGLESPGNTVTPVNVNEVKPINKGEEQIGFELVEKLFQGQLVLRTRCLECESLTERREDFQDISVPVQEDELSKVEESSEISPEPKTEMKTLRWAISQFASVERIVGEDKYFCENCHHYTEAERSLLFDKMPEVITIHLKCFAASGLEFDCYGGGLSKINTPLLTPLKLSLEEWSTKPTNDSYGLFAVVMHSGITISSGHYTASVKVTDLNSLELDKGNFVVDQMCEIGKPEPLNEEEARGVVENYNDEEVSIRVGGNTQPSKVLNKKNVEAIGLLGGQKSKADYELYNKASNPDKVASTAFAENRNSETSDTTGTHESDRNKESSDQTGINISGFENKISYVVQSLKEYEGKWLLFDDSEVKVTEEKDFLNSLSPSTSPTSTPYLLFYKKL
USP1/UAF1 enzyme, sequence (Q8TAF3 whole entry partner): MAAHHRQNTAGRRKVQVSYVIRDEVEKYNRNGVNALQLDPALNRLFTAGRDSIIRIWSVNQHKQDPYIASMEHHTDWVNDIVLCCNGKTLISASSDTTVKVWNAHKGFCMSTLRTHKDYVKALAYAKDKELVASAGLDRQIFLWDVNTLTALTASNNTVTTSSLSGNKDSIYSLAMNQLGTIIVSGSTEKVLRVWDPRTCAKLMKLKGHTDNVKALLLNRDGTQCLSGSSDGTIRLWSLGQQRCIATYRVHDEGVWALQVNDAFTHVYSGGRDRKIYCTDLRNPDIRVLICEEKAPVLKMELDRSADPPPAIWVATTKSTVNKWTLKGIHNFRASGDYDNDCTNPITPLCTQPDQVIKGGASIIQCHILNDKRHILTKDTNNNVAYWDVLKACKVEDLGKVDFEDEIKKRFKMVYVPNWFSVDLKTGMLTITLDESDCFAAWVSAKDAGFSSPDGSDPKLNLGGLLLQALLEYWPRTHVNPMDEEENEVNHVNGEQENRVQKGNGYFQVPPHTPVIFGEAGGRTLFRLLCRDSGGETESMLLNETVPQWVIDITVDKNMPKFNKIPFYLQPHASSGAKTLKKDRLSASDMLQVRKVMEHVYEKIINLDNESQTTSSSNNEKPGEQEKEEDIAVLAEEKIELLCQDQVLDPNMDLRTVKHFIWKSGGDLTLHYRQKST
Summary of the method: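 Cleavage of 150 nM ubiquitin-rhodamine 110 by 0.05 nM USP1/UAF1 was followed as fluorescence (Ex480/Em540, kinetic, 30 min) in Tris-HCl pH 7.8 buffer with EDTA, BSA, DTT and Tween-20. Compounds, top 10 μM, were preincubated with enzyme 10 min; % inhibition against no-enzyme and DMSO wells gave four-parameter IC50s.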

[5] = Liver microsomal metabolic stability, rat liver microsomes (RLM); conditions: rat, liver microsomes, t1/2 (min) in RLM, 1 μM compound, 1 mg/mL microsomes, NADPH
[6] = pH 2, aqueous buffer, PBS pH 2.0, 25° C., read-out: Solubility at pH 2.0
[7] = pH 7.4, aqueous buffer, PBS pH 7.4, 25° C., read-out: Solubility at pH 7.4

SMILES	solubility at 24 h [1, 6]	solubility at 24 h [1, 7]	half-life at 1 μM [2]	IC50 [3]	IC50 [4]	half-life at 1 μM [5]
COc1ncnc(C2CC2)c1-c1cc2n(n1)CCC(=O)N2Cc1ccc(-c2nc(C(F)(F)F)cn2C)cc1 [Example 1, 2-(4-cyclopropyl-6-methoxypyrimidin-5-yl)-4-(4-(1-methyl-4-(trifluoromethyl)-1H-imidazol-2-yl)benzyl)-6,7-dihydropyrazolo[1,5-α]pyrimidin-5(4H)-one]	≥ 10 µM	< 10 µM	> 25 min	0.1 to 0.5 µM	< 0.1 µM	> 25 min
COc1ncnc(C2CC2)c1-c1cc2n(n1)CCC(=O)N2Cc1ccc(-c2nc(C(F)(F)F)cn2C)c(F)c1 [Example 2, 2-(4-cyclopropyl-6-methoxypyrimidin-5-yl)-4-(3-fluoro-4-(1-methyl-4-(trifluoromethyl)-1H-imidazol-2-yl)benzyl)-6,7-dihydropyrazolo[1,5-a]pyrimidin-5(4H)-one]	< 10 µM	< 10 µM	> 25 min	0.1 to 0.5 µM	< 0.1 µM	> 25 min
Cc1cnn(C(C)C)c1-c1cc2n(n1)CCC(=O)N2Cc1ccc(-c2nc(C(F)(F)F)cn2C)cc1 [Example 6, 2-(1-isopropyl-4-methyl-1H-pyrazol-5-yl)-4-(4-(1-methyl-4-(trifluoromethyl)-1H-imidazol-2-yl)benzyl)-6,7-dihydropyrazolo[1,5-a]pyrimidin-5(4H)-one]	≥ 10 µM	≥ 10 µM	< 25 min	> 0.5 µM	< 0.1 µM	< 25 min
COc1ncnc(C2CC2)c1-c1cc2n(n1)CCC(=O)N2Cc1ccc(-n2nc(C(F)(F)F)cc2OC)c(F)c1 [Example 7, 2-(4-cyclopropyl-6-methoxypyrimidin-5-yl)-4-(3-fluoro-4-(5-methoxy-3-(trifluoromethyl)-1H-pyrazol-1-yl)benzyl)-6,7-dihydropyrazolo[1,5-a]pyrimidin-5(4H)-one]	< 10 µM	< 10 µM	> 25 min	0.1 to 0.5 µM	< 0.1 µM	> 25 min
CCn1cc(C(F)(F)F)nc1-c1ccc(CN2C(=O)CCn3nc(-c4c(C)cnn4C(C)C)cc32)cc1 [Example 9, 4-(4-(1-ethyl-4-(trifluoromethyl)-1H-imidazol-2-yl)benzyl)-2-(1-isopropyl-4-methyl-1H-pyrazol-5-yl)-6,7-dihydropyrazolo[1,5-a]pyrimidin-5(4H)-one]	≥ 10 µM	≥ 10 µM	< 25 min	< 0.1 µM	< 0.1 µM	< 25 min
Cc1cnn(C(C)C)c1-c1cc2n(n1)CCC(=O)N2Cc1ccc(-n2nc(C(F)(F)F)cc2C)cc1 [Example 10, 2-(1-isopropyl-4-methyl-1H-pyrazol-5-yl)-4-(4-(5-methyl-3-(trifluoromethyl)-1H-pyrazol-1-yl)benzyl)-6,7-dihydropyrazolo[1,5-a]pyrimidin-5(4H)-one]	< 10 µM	< 10 µM	< 25 min	0.1 to 0.5 µM	< 0.1 µM	< 25 min

Continued, values first:

solubility at 24 h [1, 6]	solubility at 24 h [1, 7]	half-life at 1 μM [2]	IC50 [3]	IC50 [4]	half-life at 1 μM [5]	SMILES
≥ 10 µM	< 10 µM	< 25 min	> 0.5 µM	> 0.5 µM	< 25 min	Cc1cnn(C(C)C)c1-c1cc2n(n1)CCC(=O)N2Cc1ccc(-c2nc(C(F)(F)F)nn2C)cc1 [Example 11, 2-(1-isopropyl-4-methyl-1H-pyrazol-5-yl)-4-(4-(1-methyl-3-(trifluoromethyl)-1H-1,2,4-triazol-5-yl)benzyl)-6,7-dihydropyrazolo[1,5-a]pyrimidin-5(4H)-one]
< 10 µM	< 10 µM	< 25 min	0.1 to 0.5 µM	< 0.1 µM	< 25 min	COc1cc(C(F)(F)F)nn1-c1ccc(CN2C(=O)CCn3nc(-c4c(C)cnn4C(C)C)cc32)cc1F [Example 12, 4-(3-fluoro-4-(5-methoxy-3-(trifluoromethyl)-1H-pyrazol-1-yl)benzyl)-2-(1-isopropyl-4-methyl-1H-pyrazol-5-yl)-6,7-dihydropyrazolo[1,5-a]pyrimidin-5(4H)-one]
< 10 µM	< 10 µM	> 25 min	< 0.1 µM	< 0.1 µM	> 25 min	COc1cc(C(F)(F)F)nn1-c1ccc(CN2C(=O)CCn3nc(-c4c(Cl)cnn4C(C)C)cc32)cc1F [Example 14, 2-(4-chloro-1-isopropyl-1H-pyrazol-5-yl)-4-(3-fluoro-4-(5-methoxy-3-(trifluoromethyl)-1H-pyrazol-1-yl)benzyl)-6,7-dihydropyrazolo[1,5-a]pyrimidin-5(4H)-one]
< 10 µM	< 10 µM	> 25 min	< 0.1 µM	< 0.1 µM	< 25 min	CC(C)n1ncc(Cl)c1-c1cc2n(n1)CCC(=O)N2Cc1ccc(-c2nc(C(F)(F)F)cn2C)c(F)c1 [Example 16, 2-(4-chloro-1-isopropyl-1H-pyrazol-5-yl)-4-(3-fluoro-4-(1-methyl-4-(trifluoromethyl)-1H-imidazol-2-yl)benzyl)-6,7-dihydropyrazolo[1,5-a]pyrimidin-5(4H)-one]
< 10 µM	< 10 µM	> 25 min	< 0.1 µM	< 0.1 µM	> 25 min	COc1ncnc(C2CC2)c1-c1cc2n(n1)CCC(=O)N2Cc1ccc(-c2nc(C(F)(F)F)cn2C(C)C)c(F)c1 [Example 18, 2-(4-cyclopropyl-6-methoxypyrimidin-5-yl)-4-(3-fluoro-4-(1-isopropyl-4-(trifluoromethyl)-1H-imidazol-2-yl)benzyl)-6,7-dihydropyrazolo[1,5-a]pyrimidin-5(4H)-one]
< 10 µM	< 10 µM	> 25 min	< 0.1 µM	< 0.1 µM	> 25 min	CC(C)n1cc(C(F)(F)F)nc1-c1ccc(CN2C(=O)CCn3nc(-c4c(Cl)cnn4C(C)C)cc32)cc1F [Example 20, 2-(4-chloro-1-isopropyl-1H-pyrazol-5-yl)-4-(3-fluoro-4-(1-isopropyl-4-(trifluoromethyl)-1H-imidazol-2-yl)benzyl)-6,7-dihydropyrazolo[1,5-a]pyrimidin-5(4H)-one]
